Tests used:
Type in all cases: functional, cell-based
[1] = tested on: U-937; experiment: Cytotoxicity against human U-937 cells assessed as reduction in cell viability measured after 72 hrs by CCK8 assay
[2] = tested on: DU-145; experiment: Cytotoxicity against human DU-145 cells assessed as reduction in cell viability measured after 72 hrs by CCK8 assay
[3] = tested on: K562; experiment: Cytotoxicity against human K562 cells assessed as reduction in cell viability measured after 72 hrs by CCK8 assay
[4] = tested on: A549; experiment: Cytotoxicity against human A549 cells assessed as reduction in cell viability measured after 72 hrs by CCK8 assay
[5] = tested on: HL-60; experiment: Cytotoxicity against human HL-60 cells assessed as reduction in cell viability measured after 72 hrs by CCK8 assay
[6] = tested on: MCF7; experiment: Cytotoxicity against human MCF7 cells assessed as reduction in cell viability measured after 72 hrs by CCK8 assay
[7] = tested on: HT-29; experiment: Cytotoxicity against human HT-29 cells assessed as reduction in cell viability measured after 72 hrs by CCK8 assay
[8] = tested on: HeLa; experiment: Cytotoxicity against human HeLa cells assessed as reduction in cell viability measured after 72 hrs by CCK8 assay
[9] = Homo sapiens, U-937, 72 h, read-out: IC50
[10] = Homo sapiens, DU-145, 72 h, read-out: IC50
[11] = Homo sapiens, K562, 72 h, read-out: IC50
[12] = Homo sapiens, A549, 72 h, read-out: IC50
[13] = Homo sapiens, HL-60, 72 h, read-out: IC50
[14] = Homo sapiens, MCF7, 72 h, read-out: IC50
[15] = Homo sapiens, HT-29, 72 h, read-out: IC50
[16] = Homo sapiens, HeLa, 72 h, read-out: IC50

Row | SMILES | IC50 ([1]; u-937) | IC50 ([2]; du-145) | IC50 ([3]; k562) | IC50 ([4]; a549) | IC50 ([5]; hl-60) | IC50 ([6]; mcf7) | IC50 ([7]; ht-29) | IC50 ([8]; hela) | IC50 [1, 9] | IC50 [2, 10] | IC50 [3, 11] | IC50 [4, 12] | IC50 [5, 13] | IC50 [6, 14] | IC50 [7, 15] | IC50 [8, 16]
1 | C=CCn1c(=O)/c(=C/CCCCCCCCCCCCCCC)[nH]c(=O)/c1=C/c1cccc(OC)c1 | Not Active | Not Active | Not Active | Not Active | Not Active | Not Active | Not Active | Not Active | – | – | – | – | – | – | – | –
2 | C=CCn1c(=O)/c(=C/CCCCC)[nH]c(=O)/c1=C/c1ccccc1OC | – | – | – | – | – | – | – | – | 1.9 µM | 10.7 µM | 2.6 µM | 8.7 µM | 13.4 µM | 6.9 µM | 7.4 µM | 5.7 µM
3 | C=CCn1c(=O)/c(=C/CCCCCCCCC)[nH]c(=O)/c1=C/c1ccccc1OC | – | Not Active | – | Not Active | – | Not Active | Not Active | Not Active | 18.8 µM | – | 10.4 µM | – | 3.4 µM | – | – | –
4 | C=CCn1c(=O)/c(=C/CCCCC)[nH]c(=O)/c1=C/c1ccc(OC)cc1 | – | – | – | – | Not Active | – | – | – | 0.5 µM | 2.1 µM | 0.7 µM | 1.9 µM | – | 2.3 µM | 1.7 µM | 1.1 µM
5 | C=CCn1c(=O)/c(=C/CC)[nH]c(=O)/c1=C/c1ccc(OC)cc1 | – | – | – | – | Not Active | – | – | – | 1.48 µM | 8.9 µM | 2.1 µM | 6.1 µM | – | 4.3 µM | 4.2 µM | 4.6 µM
6 | C=CCn1c(=O)/c(=C/CCCCCCCCC)[nH]c(=O)/c1=C/c1ccc(OC)cc1 | – | Not Active | – | Not Active | – | Not Active | Not Active | Not Active | 10.3 µM | – | 11.7 µM | – | 5.3 µM | – | – | –
7 | C=CCn1c(=O)/c(=C/CC)[nH]c(=O)/c1=C/c1ccccc1OC | Not Active | Not Active | Not Active | Not Active | Not Active | Not Active | Not Active | Not Active | – | – | – | – | – | – | – | –
8 | C=CCn1c(=O)/c(=C/CCCCCC)[nH]c(=O)/c1=C/c1ccc(OC)cc1 | – | – | – | – | – | – | – | – | 0.6 µM | 2.2 µM | 0.9 µM | 2 µM | 3.4 µM | 2.4 µM | 1.6 µM | 1.6 µM
9 | C=CCn1c(=O)/c(=C/CCCCCCCCCC)[nH]c(=O)/c1=C/c1cccc(OC)c1 | Not Active | Not Active | Not Active | Not Active | Not Active | Not Active | Not Active | Not Active | – | – | – | – | – | – | – | –
10 | C=CCn1c(=O)/c(=C/CCCC)[nH]c(=O)/c1=C/c1ccccc1OC | – | – | – | – | – | – | – | – | 0.9 µM | 4.3 µM | 1.4 µM | 4 µM | 0.5 µM | 3.1 µM | 3.3 µM | 2.4 µM
11 | C=CCn1c(=O)/c(=C/CCCCCCC)[nH]c(=O)/c1=C/c1cccc(OC)c1 | Not Active | Not Active | Not Active | Not Active | Not Active | Not Active | Not Active | Not Active | – | – | – | – | – | – | – | –
12 | C=CCn1c(=O)/c(=C/CCCCCCCCCC)[nH]c(=O)/c1=C/c1ccc(OC)cc1 | Not Active | Not Active | Not Active | Not Active | Not Active | Not Active | Not Active | Not Active | – | – | – | – | – | – | – | –
13 | C=CCn1c(=O)/c(=C/CCCCCCC)[nH]c(=O)/c1=C/c1ccc(OC)cc1 | – | – | – | – | – | – | – | – | 1.1 µM | 2.9 µM | 1.5 µM | 2.9 µM | 28.2 µM | 2.8 µM | 2.2 µM | 2.3 µM
14 | C=CCn1c(=O)/c(=C/CCCCCCCC)[nH]c(=O)/c1=C/c1ccc(OC)cc1 | – | – | – | – | – | – | – | – | 3.7 µM | 7.9 µM | 5.6 µM | 15.8 µM | 26.5 µM | 10.1 µM | 10.8 µM | 8.1 µM
15 | C=CCn1c(=O)/c(=C/CCCC)[nH]c(=O)/c1=C/c1cccc(OC)c1 | Not Active | Not Active | Not Active | Not Active | Not Active | Not Active | Not Active | Not Active | – | – | – | – | – | – | – | –
16 | C=CCn1c(=O)/c(=C/CCC)[nH]c(=O)/c1=C/c1ccc(OC)cc1 | – | – | – | – | – | – | – | – | 2.2 µM | 13.1 µM | 2.9 µM | 12.3 µM | 6.2 µM | 9.3 µM | 8.3 µM | 7.1 µM
17 | C=CCn1c(=O)/c(=C/CCCCCCCCCCCCCCC)[nH]c(=O)/c1=C/c1ccccc1OC | Not Active | Not Active | Not Active | Not Active | Not Active | Not Active | Not Active | Not Active | – | – | – | – | – | – | – | –
18 | C=CCn1c(=O)/c(=C/CCCCCCCC)[nH]c(=O)/c1=C/c1ccccc1OC | Not Active | Not Active | Not Active | Not Active | Not Active | Not Active | Not Active | Not Active | – | – | – | – | – | – | – | –
19 | C=CCn1c(=O)/c(=C/CCCCC)[nH]c(=O)/c1=C/c1cccc(OC)c1 | Not Active | Not Active | Not Active | Not Active | Not Active | Not Active | Not Active | Not Active | – | – | – | – | – | – | – | –
20 | C=CCn1c(=O)/c(=C/CCCCCCCCCCCCCCC)[nH]c(=O)/c1=C/c1ccc(OC)cc1 | Not Active | Not Active | Not Active | Not Active | Not Active | Not Active | Not Active | Not Active | – | – | – | – | – | – | – | –
21 | C=CCn1c(=O)/c(=C/CCCCCCCCCCC)[nH]c(=O)/c1=C/c1cccc(OC)c1 | Not Active | Not Active | Not Active | Not Active | Not Active | Not Active | Not Active | Not Active | – | – | – | – | – | – | – | –
22 | Cn1c(=O)/c(=C/c2ccccc2)[nH]c(=O)/c1=C/c1ccccc1 | – | – | – | – | Not Active | – | – | – | 1.4 µM | 9.4 µM | 2.9 µM | 7.8 µM | – | 5.1 µM | 6.5 µM | 4.9 µM

— ChEMBL document CHEMBL4715742, “Design, synthesis and cytotoxic activities of novel 2,5-diketopiperazine derivatives” (Eur J Med Chem, 2016)
